In patent US12492403B2, “Aptamers and the use thereof in the treatment of cancer” (FUNDACIÓN PARA LA INVESTIGACIÓN BIOMÉDICA DEL HOSPITAL …, priority 2018, dated 2025):

Tests used:
MDA-MB-231 cells = assay: Transwell invasion assay with Matrigel; type: cell-based, human; details: MDA-MB-231, 400 nM
Protocol: (§1) FIGS. 13A, 13B and 13C. Effect of aptamer apMNKQ2 on the migration and invasion of breast cell lines. The three lines of study were seeded in 6-well plates at a density of 2.5×10^5 cells/well and transfected at 24 hours with apMNKQ2 at the established working concentrations. The cell lines were deprived of serum after 6 hours and collected and re-seeded (4×10^4 cells/well) after 24 hours in a transwell […], in order to perform migration and invasion assays, respectively. At 24 hours, the membranes of the transwell are stained with Hoechst and cells that have gone through the membranes are quantified using fluorescence microscopy (FIG. 13A). The boxes (FIGS. 13B and 13C) represent the mean±the maximum and minimum of 4-5 independent experiments (*p<0.05, **p<0.01, and ***p<0.001 with respect to the control aptamer AT).
(§2) Cell migration and invasion assays were performed using transwell (Corning, USA). […] After that time, they were collected, counted, and reseeded 4×10^4 cells in 300 μl of a serum-free complete medium inside the transwell (migration) or a transwell on which a layer of 100 μL of Matrigel (Corning, USA) (invasion) had previously been polymerized. […] Finally, two washes in PBS were performed, and 5 photographs of each membrane of the transwell were taken using a fluorescence microscope (Olympus IX70). The number of cells was analyzed using the imageJ program. […]

MDA-MB-468 cells = assay: Transwell invasion assay with Matrigel; type: cell-based, human; details: MDA-MB-468, 50 nM
Protocol: as §1, §2

[1] = tested on: MCF7, MDA-MB-231, and MDA-MB-468 cells; assay: MTT activity after direct addition of aptamer (no transfectant); type: cell-based, human; details: direct addition without transfectant, highest tested concentration (0.5, 1, and 2 μM tested), 48 hours
Protocol: FIG. 17. MTT activity measurement in breast lines after the direct addition of apMNKQ2. MCF7, MDA-MB-231, and MDA-MB-468 cells were seeded in 96-well plates at a density of 10^4 cells/well, and apMNKQ2 was added at concentrations of 0.5, 1, and 2 μM at 24 hours. MTT assays were performed after 48 hours. The graphs represent the mean of 3 independent experiments, and are normalized with respect to the control of the untreated cells.
MTT activity. The cells were seeded in 96-well plates and after having been transfected, the culture medium was removed and 100 μL/well of MTT at 1 mg/ml in culture medium were added. The plates were incubated for 90 minutes in an incubator with a moisture-saturated environment at 37° C. and 5% CO2/[…] and 100 μL/well of a lysis solution (10% SDS and 10 mM HCl) were added for dissolving the crystals. After 48 hours, the reduction of MTT was determined by means of spectrophotometry in Infinite F200 (TECAN, Switzerland) at 540 nm.
The signal of the aptamer with lipofectamine (FIG. 16B) is more intense and less scattered than when the aptamer enters directly (FIG. 16A). The difference is more evident in the aggregates co-localized in the nucleus. […]

4T1 cells = assay: MTT activity assay in 4T1 cells; type: cell-based, mouse; details: 4T1 cells, 0, 250, 500 and 1000 nM, 48 hours
Protocol: FIG. 21A-21E. In vivo efficacy of apMNKQ2 in a mouse metastatic model with an orthotopic xenograft of 4T1 cells. (A) Effect of apMNKQ2 aptamer on the proliferation of 4T1 cells (mouse breast tumor line). 4T1 cells were seeded in p96 at a density of 1.5×10^3 cells/well. […] The graph (FIG. 21A) represents the means±SEM of 3 independent experiments. (B) Effect of apMNKQ2 aptamer on migration and invasion of 4T1 cells. Cells were seeded in p6 at a density of 2×10^5 cells/well and transfected with 500 nM apMNKQ2 at 24 hours. At 6 hours they were deprived of serum, and after 24 hours they were collected and re-seeded (4×10^4 cells/well) in a transwell […]. At 24 hours (migration) or 48 h (invasion), the transwell membranes were stained with Hoechst and the cells that had passed through the fluorescence microscopy were quantified. Values (FIG. 21B) represent the mean±SEM of 2-3 independent experiments. In vivo efficacy of apMNKQ2 in a mouse metastatic model with an orthotopic xenograft of 4T1 cells. […] The number of metastases is analyzed by the reverse staining method (with Chinese ink) and the metastases grouped according to their size in four groups (0.5, 1, 2 and >2). […]
MTT activity. […] After 48 hours, the reduction of MTT was determined by means of spectrophotometry in Infinite F200 (TECAN, Switzerland) at 540 nm.

Substance: 5′TGGGGTGGGCGGGCGGGGGTGGGGGTGGT-3′ (DNA, backbone and methylation of C not given here; further chemistry not fully specified) [apMNKQ2]
- invasion (transwell with Matrigel) (MDA-MB-231 cells): significant reduction of invasion
- invasion (transwell with Matrigel) (MDA-MB-468 cells): significant reduction of invasion
- reduction of MTT activity [1]: 15%
- cell proliferation as measured by MTT activity (4T1 cells): does not affect cell proliferation
